Laboratory results taken from patent US20010025105A1, “Certain substituted 1-aryl-3-piperazine-1'-yl propanones” (Molecular Geriatarics Corporation, priority 1997, published 2001).
Counter-ions that a name gives are not always drawn.

Test system: TG3 immunoreactivity in OKA treated MSN1a cells
Test: MSN1a cell culture model, ELISA with TG3 antibody, okadaic acid treated cells
Assay type: cell-based, human
Settings: 1 μM OKA, 2 hrs at 37° C., read-out: IC50 for inhibition of TG3 immunoreactivity in OKA treated MSN1a cells
Description: This assay can thus be used to determine whether a drug is capable of preventing or intervening in AD by attenuating the production of abnormally phosphorylated paired helical filament epitopes associated with AD. To determine whether a drug is capable of preventing or intervening in AD activity, the MSN1a cells containing tau and associated proteins are treated with OKA capable of greatly increasing immunoreactivity of the MSN1a cells with AD specific monoclonal antibodies. Then, either prior to or concomitantly with OKA treatment, a compound of the present invention is added to the culture. If the compound prevents the induction of the AD epitopes in the MSN1a cells treated with OKA, then it is said to have anti-AD activity. If the AD-specific antibodies are highly reactive with the neuroblastoma cells following OKA treatment in the presence of compound, then the compound is said to be ineffectual against AD.
The MSN1a human neuroblastoma line was subcloned from a population of MSN cells obtained from the laboratory of Dr. Peter Davies (Albert Einstein College of Medicine, New York, N.Y.). Cells were grown and maintained in flasks in RPMI 1640 medium, supplemented with 15% fetal calf serum, 100 U/ml penicillin, 100 U/ml Streptomycin, 0.5 ug/ml fungizone under 7.5% CO2 at 37° C.
Stock solutions of drugs were prepared by dissolving the anhydrous powders to final concentrations of either 10 or 20 mM in 50% aqueous or 100% dimethyl sulfoxide (DMSO), respectively. Working solutions of drugs were prepared by dilution of the stock solutions with Kreb's Ringer in Hepes buffer (KRH) (128 mM NaCl, 5 mM KCl, 2.5 mM CaCl2 1.2 mM MgSO4, 1 mM Na2HPO4, 10 mM dextrose, 20 mM Hepes, pH 7.4). OKA is maintained as a 1 mM stock solution in DMSO prior to dilution to 4 μM in KRH.
MSN cells grown in 225 cm^2 flasks are removed from the incubator, their medium decanted and replaced with 50 ml pre-warmed KRH. The cells are harvested by scraping prior to sedimentation at 1000 rpm for 5 min. The supernatants are discarded and the cell pellets are resuspended, the cells counted and diluted to a density of 2×10^4 cells/[…]. The cells are then plated in a 96 well plate at 50 μl/well and 25 μl of 4 μM OKA and 25 μl of drug are then added to the appropriate wells; the entire 96 well plate is then incubated for 2 hrs at 37° C. Depending on the dilution of drug added, this yields individual wells containing 1 μM OKA, 0-64 μM drug and 2×10^4 cells in 0.26% DMSO in KRH. The incubation is terminated by the addition of 20 μl of 6X extraction buffer and immediate freezing at −80° C. for at least one hr. The 6X extraction buffer contains: 25 mM Tris-HCl, pH 7.6, 150 mM NaCl, 5 mM EDTA, 24 mM β-glycerol phosphate, 10 μg/ml APMSF (4-amidinophenylmethane-sulfonyl flouride), and 2.5 μg/ml each of leupeptin, aprotinin, and pepstatin. The plates are thawed in a 37° C. water bath and 20 μl of cell lysate is added to a replica well in an ELISA plate that already contains 80 μl of coating buffer (15 mM Na2CO3 and 35 mM NaHCO3, pH 9.6). The plates are allowed to coat overnight at 4° C. The plates are washed four times with deionized water and then blocked for 30 min at 37° C. with 200 μl/well pre-warmed 1% bovine serum albumin in 10 mM Tris-HCl, pH 7.4, 150 mM NaCl, 3 mM NaN3 (BSA-TBS). After the blocking solution is removed, 100 μl/well of an appropriate dilution of pre-warmed primary antibody (eg., TG3 or PHF-1) in BSA-TBS is added and incubated at 37° C. for 30 min. Incubation is terninated by washing four times in deionized water at which time 100 μl of an appropriate dilution of pre-warmed secondary antibody (conjugated to alkaline phosphatase) in BSA-TBS is added to each well in the ELISA plate. Incubation is performed for 30 min at 37° C. followed by washing 4 times with deionized water. […] of prewarmed chromogenic substrate (1 mg/mnl p-nitrophenyl phosphate in 10% diethanolamine, 3 mM NaN3, 0.5 mM MgCl2, pH 9.8) is added and the plate incubated for 30 min at 37° C. […]
With O=C(CCN1CCN(Cc2ccc(F)c(F)c2)CC1)c1ccc([N+](=O)[O-])cc1 [Example 55, 1-(p-Nitrophenyl)-3-[4′-(3″,4″-difluorobenzyl)-1′-piperazinyl]-1-propanone dihydrochloride] the IC50 was 6.3 µM.
Work on O=C(CCN1CCN(Cc2ccc(F)cc2)CC1)c1ccccc1F [Example 44, 1-(o-Fluorophenyl)-3-[4′-(p-fluorobenzyl)-1′-piperazinyl]-1-propanone dihydrochloride] yielded an IC50 of 7.5 µM.
Molecule CS(=O)(=O)Nc1ccc(C(=O)CCN2CCN(Cc3cc(F)ccc3F)CC2)cc1 [Example 36, 1-p-Methanesulfonamidophenyl)-3-(2″,5″-difluorobenzyl-1′-piperazinyl)-1-propanone dihydrochloride] has an IC50 of 25 µM.
O=C(CCN1CCN(Cc2ccccc2F)CC1)c1ccc([N+](=O)[O-])cc1 [Example 32, 1-(p-Nitrophenyl)-3-[4′-(o-fluorobenzyl)-1′-piperazinyl]-1-propanone dihydrochloride] gave an IC50 of 6.2 µM.
In the case of “1-(-Methylthiophenyl)-3-(4′-benzyl-1′-piperazinyl)-1-propanonedihydrochloride [Example 14]”, the IC50 is reported as 5.8 µM.
Molecule O=C(CCN1CCN(Cc2ccccc2F)CC1)c1ccc(I)cc1 [Example 29, 1-(p-Iodophenyl)-3-[4′-(o-fluorobenzyl)-1′-piperazinyl]-1-propanone dihydrochloride] has an IC50 of 8.7 µM.
Molecule O=C(CCN1CCN(Cc2ccccc2)CC1)c1cccc([N+](=O)[O-])c1 [Example 11, 1-(m-Nitrophenyl)-3-(4′-benzyl-1′-piperazinyl)-1-propanone dihydrochloride] has an IC50 of 4.2 µM.
Molecule O=C(CCN1CCN(Cc2ccccc2)CC1)c1ccccc1I [Example 81, 1-o-Iodophenyl-3-(4′-benzyl-1′-piperazinyl)-1-propanone dihydrochloride] has an IC50 of 4.5 µM.
For O=C(CCN1CCN(Cc2cccc(F)c2)CC1)c1ccc([N+](=O)[O-])cc1 [Example 42, 1-(p-Nitrophenyl)-3-[4′-(m-fluorobenzyl)-1′-piperazinyl]-1-propanonedihydrochloride], the IC50 was 5.7 µM.
For Cl.Cl.O=C(CCN1CCN(Cc2ccccc2)CC1)c1ccc([N+](=O)[O-])cc1 [Example 5, 1-p-Nitrophenyl)-3-(4′-benzyl-1′-piperaziny)-1-propanone dihydrochloride], the IC50 was 5 µM.
Work on O=C(CCN1CCN(Cc2ccccc2)CC1)c1ccc(Br)cc1 [Example 16, 1-(p-Bromophenyl)-3-(4′-benzyl-1′-piperazinyl)-1-propanone dihydrochloride] yielded an IC50 of 5.2 µM.
O=C(CCN1CCN(C(=O)c2ccccc2C(F)(F)F)CC1)c1ccc([N+](=O)[O-])cc1 [Example 39] gave an IC50 of 10 µM.
“1-(1-Nitrophenyl)-3-[4′-(2″,3″-difluorobenzoyl)-1′-piperazinyl]-1-propanone dihydrochloride [Example 63]” gave an IC50 of 7.3 µM.
O=C(CCN1CCN(Cc2ccccc2)CC1)c1ccc(Br)s1 [Example 57, 1-(5″-Bromo-2″-thieny)-3-(4′-benzy-1′-piperazinyl)-1-propanone dihydrochloride] showed an IC50 of 6.8 µM.
Molecule O=C(CCN1CCN(Cc2ccccc2)CC1)c1ccccc1F [Example 13, 1-(o-Fluorophenyl)-3-(4′-benzyl-1′-piperazinyl)-1-propanone dihydrochloride] has an IC50 of 11 µM.

Same assay, conditions: Homo sapiens, 1 μM OKA, 2 hrs at 37° C., read-out: IC50 for inhibition of TG3 immunoreactivity in OKA treated MSN1a cells
In the case of O=C(CCN1CCC(C(=O)c2ccc(F)cc2)CC1)c1csc([N+](=O)[O-])c1 [Example 98, 1-(2″-Nitro-4″-thienyl)-3-(4′-p-fluorobenzoyl-1′-piperidinyl)-1-propanone hydrochloride], the IC50 is reported as 34 µM.
Molecule O=C(CCN1CCN(Cc2ccccc2)CC1)c1cccn1S(=O)(=O)c1ccccc1 [Example 91, 1-(N-Phenylsulfonylpyrrol-2-yl)-3-(4′-benzyl-1′-piperazinyl)-1-propanone dihydrochloride] has an IC50 of 9.5 µM.
Work on Cc1ccc(C(=O)CCN2CCN(Cc3ccccc3)CC2)o1 [Example 67, 1-(5″-Methyl-2″-furanyl)-3-(4′-benzyl-1′-piperazinyl)-1-propanone hydrochloride] yielded an IC50 of 20 µM.
For CS(=O)(=O)Nc1ccc(C(=O)CCN2CCN(Cc3ccccc3)CC2)cc1 [Example 26, 1-[-p-(Methanesulfonamido)phenyl]-3-(4′-benzyl-1′-piperazinyl)-1-propanone dihydrochloride], the IC50 was 14.7 µM.
For O=C(CCN1CCN(Cc2ccccc2)CC1)c1ccc2c(c1)OCCO2 [Example 19, 1-(2″,3″-Dihydro-1″,4″-benzodioxan-6″-yl)-3-(4′-benzyl-1′-piperazinyl)-1-propanone dihydrochloride], the IC50 was 15.6 µM.
For O=C(CCN1CCN(Cc2ccccc2)CC1)c1ccc(Sc2ccccc2)cc1 [Example 69, 1-p-Phenylthiophenyl-3-(4′-benzyl-1′-piperazinyl)-3-propanone dihydrochlonde], the IC50 was 15 µM.

Test system: not given
Test: not given
Settings: not given
O=C(CCN1CCC(C(=O)c2ccc(F)cc2)CC1)c1csc([N+](=O)[O-])c1 (as salt: hydrochloride) [Example 98, 1-(2″-Nitro-4″-thienyl)-3-(4′-p-fluorobenzoyl-1′-piperidinyl)-1-propanone hydrochloride] gave a melting point of 205 to 206 °C.
Work on O=C(CCN1CCN(C(=O)c2ccc(I)cc2)CC1)c1ccc(N2CCOCC2)cc1 (as salt: hydrochloride) [Example 68, 1-(p-N-Morpholinophenyl)-3-[4′-p-iodobenzoyl)-1′-piperazinyl]-1-propanone dihydrochloride] yielded a melting point of 240 °C.
Work on O=C(CCN1CCN(C(=O)c2c(F)cccc2F)CC1)c1ccc(Br)s1 (as salt: hydrochloride) [Example 62, 1-(5′″-Bromo-2′″-thienyl)-3-[4′-(2″,6″-difluorobenzoyl)-1′-piperazinyl]-1-propanone hydrochloride] yielded a melting point of 225 to 226 °C.
With O=C(CCN1CCN(Cc2ccccc2)CC1)c1cccn1S(=O)(=O)c1ccccc1 (as salt: hydrochloride) [Example 91, 1-(N-Phenylsulfonylpyrrol-2-yl)-3-(4′-benzyl-1′-piperazinyl)-1-propanone dihydrochloride] the melting point was 215 °C (dec.).
In the case of Cn1cc(C(=O)CCN2CCN(Cc3ccccc3)CC2)cn1 (as salt: hydrochloride) [Example 24, 1-(1″-Methyl-1″-H-pyrazol-4″-yl)-3-(4′-benzyl-1′-piperazinyl)-1-propanone dihydrochloride], the melting point is reported as 221 °C (dec.).
In the case of O=C(CCN1CCN(C(=O)c2ccccc2F)CC1)c1ccc([N+](=O)[O-])cc1 (as salt: hydrochloride) [Example 54, 1-(p-Nitrophenyl)-3-(4′-o-fluorobenzoyl-1′-piperazinyl)-1-propanone dihydrochloride], the melting point is reported as 217 to 218 °C.
O=C(CCN1CCN(C(=O)c2c(F)cccc2F)CC1)c1ccc([N+](=O)[O-])cc1 (as salt: hydrochloride) [Example 40, 1-(p-Nitrophenyl)-3-[4′-(2″,6″-difluorobenzoyl)-1′-piperazinyl]-1-propanone hydrochloride] gave a melting point of 225 to 227 °C.
